# Test results taken from ChEMBL document CHEMBL5727717, “ABHD6 and dual ABHD6/MGL inhibitors and their uses” (2020).
# Experiments:
# [1] = Fluorescent Assay: hABHD6:Initial Fluorescent Inhibition Assay (3-Point)—In each well of a 96-well plate 8 μL of membrane fraction containing full-length hABHD6 (1 μg total protein) was mixed with 168 μL of assay buffer (50 mM Tris-HCl, pH 7.6), and 20 μL of diluted compound (diluted in a dilution buffer consisting of 50% DMSO/50% assay buffer v/v). Each plate was incubated at RT for 15 minutes before adding 4 μL of 1 mM AHMMCE substrate (final concentration of 20 μM AHMMCE and final volume of 200 μL). The reaction was allowed to proceed for 1 hr at RT before the fluorescence was read at λex 360 nm and λem 460 nm and the inhibition calculated. Each experiment can test 8 compounds at three concentrations (usually 10 μM, 1 μM, and 100 nM).
# Monoglyceride lipase = molecular target: T1, Monoglyceride lipase (Homo sapiens, UniProt Q99685); assay: This medium throughput assay involved a 96-well plate format in which hMGL activity was monitored by the hydrolysis of the substrate 7-hydroxy-6-methoxy-4-methylcoumarin ester (AHMMCE) to form the fluorescent product, coumarin. […] Upon the addition of AHMMCE, the reaction was incubated at 25° C. for 120 min; fluorescence readings were taken every 15 min at 360 nm/460 nm (λexcitation/λemission) using a Synergy HT Plate Reader (Bio-Tek, Winooski, Vt.). […] External standards were used to convert relative fluorescence units to the amount of 4-methylcoumarin formed.
# T1 sequence (Q99685 whole entry): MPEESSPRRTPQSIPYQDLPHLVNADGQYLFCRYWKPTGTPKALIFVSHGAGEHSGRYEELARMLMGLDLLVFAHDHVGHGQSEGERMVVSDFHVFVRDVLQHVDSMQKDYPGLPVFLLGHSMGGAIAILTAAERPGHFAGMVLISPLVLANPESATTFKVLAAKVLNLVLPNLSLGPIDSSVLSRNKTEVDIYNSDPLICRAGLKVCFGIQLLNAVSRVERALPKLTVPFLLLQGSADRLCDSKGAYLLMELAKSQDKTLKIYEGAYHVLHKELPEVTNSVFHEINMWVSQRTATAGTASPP
SMILES,IC50 [1] [µM],IC50 (Monoglyceride lipase) [µM]
O=C(OC(C(F)(F)F)C(F)(F)F)N1CCC2(CC(OC(c3ccc(F)cc3)c3ccc(F)cc3)C2)C1 (configuration not stated),> 1,–
O=C(OC(C(F)(F)F)C(F)(F)F)N1Cc2ccc(N3CCS(=O)(=O)CC3)cc2C1,–,> 1
